One data set has as its target T1, B-Raf (Homo sapiens, UniProt P15056).
T1 construct: purchased Upstate Biotechnology
As to the kind of experiment: Raf kinase biochemical assay (biotin-MEK1 phosphorylation, AlphaScreen), B-Raf. The settings on record: 100 μM ATP, biotin-MEK1 substrate. Here is the method: (§1) Assays for biochemical and cell based activity are known in the art, for example, as described in PCT publication WO 2007/002433, the disclosure of which is hereby incorporated by reference as it relates to such assays. For example, the biochemical activity IC50 values are determined with respect to inhibition of B-Raf kinase activity, c-Raf-1 kinase activity, or B-Raf V600E kinase activity, where inhibition of phosphorylation of a peptide substrate is measured as a function of compound concentration. Compounds to be tested are diluted in dimethyl sulfoxide to a concentration of 0.1 mM. These are serially diluted 15 μL into 30 μL of dimethyl sulfoxide seven times in 96 well plates for a total of 8 dilution points, and for each dilution point 1 μL is added to a well of an assay plate. Plates are prepared such that each well in a 384 well plate contains 1 μL of compound in 10 μL volume with 0.1 ng Raf enzyme (i.e. any of B-Raf, c-Raf-1 or B-Raf V600E, Upstate Biotechnology or prepared by methods known to one of skill in the art), 50 mM HEPES, pH 7.0, 50 mM NaCl, 2 mM MgCl2, 1 mM MnCl2, 0.01% Tween-20, 1 mM DTT, and 100 nM biotin-MEK1 as substrate. The reaction is started with addition of 10 μL of 200 μM ATP (i.e. final 100 μM ATP). […] The plates are incubated for 3 hours at room temperature and read on Envision reader (Perkin Elmer). […]
In general terms: Bead proximity is the source of the signal in Alpha formats.

Another data set concerns the target T2, CYP1A2 (Homo sapiens, UniProt P05177).
T2 construct: purchased BD Biosciences
T2 sequence (P05177 1-516): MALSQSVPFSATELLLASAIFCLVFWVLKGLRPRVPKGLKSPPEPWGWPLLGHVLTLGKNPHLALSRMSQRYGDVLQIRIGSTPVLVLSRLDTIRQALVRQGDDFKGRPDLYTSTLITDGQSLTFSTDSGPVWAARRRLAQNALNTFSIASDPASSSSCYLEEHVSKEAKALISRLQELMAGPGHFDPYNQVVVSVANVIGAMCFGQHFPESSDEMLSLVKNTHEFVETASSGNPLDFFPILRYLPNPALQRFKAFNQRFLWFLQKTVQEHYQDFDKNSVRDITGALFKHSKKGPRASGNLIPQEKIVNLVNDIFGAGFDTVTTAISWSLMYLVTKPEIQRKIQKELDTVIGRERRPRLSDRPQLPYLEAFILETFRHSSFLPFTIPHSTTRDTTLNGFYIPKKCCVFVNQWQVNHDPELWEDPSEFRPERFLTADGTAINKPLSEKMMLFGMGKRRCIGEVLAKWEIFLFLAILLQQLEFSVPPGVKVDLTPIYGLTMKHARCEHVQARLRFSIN
Put plainly: CYP inhibition fluorescence assay, CYP1A2. In kind it is in vitro ADME. The settings on record: substrate CEC; read-out: Cyp IC50 1A2. The method, then: (§2) CYP (Cytochrome P450) enzymes are the major drug metabolizing enzymes present in the liver. The inhibition of CYP enzyme activity (IC50) for each of CYP1A2, CYP2C19, CYP2C9, CYP2D6, CYP3A4(BFC) and CYP3A4(BQ) is determined for compounds, where inhibition of metabolism of a known substrate leads to a decrease in the fluorescence of the metabolized product. The fluorescence of the product is monitored as a function of compound concentration. Compounds are dissolved in dimethyl sulfoxide to a concentration of 100 mM. These are diluted 1 μL into 82 μL of acetonitrile. An 11 μL aliquot of this solution is then added to 204 μL of cofactor mix (1.3% NADPH Regeneration system Solution A, 1.04% NADPH Regeneration system Solution B from BD Biosciences, 5% acetonitrile and 0.05% dimethyl sulfoxide). These are then serially diluted 160 μL to 160 μL co-factor mix for a total of 10 points. A 10 μL aliquot of this final mixture is dispensed into 384 well assay plates and incubated for 10 minutes at 37° C. Enzyme and substrate mix (10 μL; 0.5 pmol CYP1A2/5 μM CEC; 1.0 pmol CYP2C9/75 μM MFC; 0.5 pmol CYP2C19/25 μM CEC; 1.5 pmol CYP2D6/1.5 μM AMMC; 1.0 pmol CYP3A4/50 μM BFC; or 1.0 pmol CYP3A4/40 μM BQ) is added to these assay plates. […] (CYP1A2-15 min; CYP2C9-45 min; CYP2C19, 2D6 and 3A4-30 min) and read in a Tecan Safire 2 plate reader (CYP1A2, 2C19 and 3A4 409 ex/460 em; CYP2C9 and 2D6 409 ex/530 em). […]

A further data set addresses T3, CYP2C9 (Homo sapiens, UniProt P11712).
T3 construct: purchased BD Biosciences
Put plainly: CYP inhibition fluorescence assay, CYP2C9. The format is in vitro ADME. The settings on record: substrate MFC; read-out: Cyp IC50 2C9. Here is the method:
as §2

A further data set concerns the target Fms (Homo sapiens, UniProt P07333). Put plainly: Kinase biochemical assay, Fms.
In another data set the target is Btk (Homo sapiens, UniProt Q06187). As to the kind of experiment: Kinase biochemical assay, Btk.
Btk, sequence (Q06187 whole entry, species assumed): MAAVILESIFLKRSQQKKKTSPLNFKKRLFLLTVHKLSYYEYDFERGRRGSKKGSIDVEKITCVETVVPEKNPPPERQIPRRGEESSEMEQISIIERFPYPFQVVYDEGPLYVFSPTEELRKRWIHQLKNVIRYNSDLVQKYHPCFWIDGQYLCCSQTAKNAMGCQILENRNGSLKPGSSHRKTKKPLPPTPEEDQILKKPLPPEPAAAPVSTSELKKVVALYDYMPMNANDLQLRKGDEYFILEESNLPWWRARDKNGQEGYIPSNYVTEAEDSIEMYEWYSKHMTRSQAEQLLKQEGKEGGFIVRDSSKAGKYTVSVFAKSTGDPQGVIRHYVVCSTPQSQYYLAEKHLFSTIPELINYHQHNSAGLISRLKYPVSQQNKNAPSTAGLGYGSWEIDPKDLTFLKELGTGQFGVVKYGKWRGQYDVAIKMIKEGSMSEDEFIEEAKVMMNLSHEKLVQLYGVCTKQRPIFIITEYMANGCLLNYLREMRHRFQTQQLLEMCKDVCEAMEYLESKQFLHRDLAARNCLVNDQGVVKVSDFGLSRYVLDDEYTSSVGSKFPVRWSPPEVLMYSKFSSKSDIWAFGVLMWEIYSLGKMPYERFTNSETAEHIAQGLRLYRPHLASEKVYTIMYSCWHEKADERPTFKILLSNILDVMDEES
A further data set has as its target TrkA (Homo sapiens, UniProt P04629). As to the kind of experiment: Kinase biochemical assay, TrkA.
The next data set concerns the target Kit (Homo sapiens, UniProt P10721). Put plainly: Kinase biochemical assay, Kit.
Another data set has as its target T4, c-Raf-1 (Homo sapiens, UniProt P04049).
T4 construct: purchased Upstate Biotechnology
Put plainly: Raf kinase biochemical assay (biotin-MEK1 phosphorylation, AlphaScreen), c-Raf-1. The note with it: 100 μM ATP, biotin-MEK1 substrate. The method, then: as §1

The next data set has as its target T5, CYP3A4(BQ) (Homo sapiens, UniProt P08684).
T5 construct: purchased BD Biosciences
Put plainly: CYP inhibition fluorescence assay, CYP3A4 with BQ substrate. The format is in vitro ADME. The note with it: read-out: Cyp IC50 3A4(BQ). The method, then: as §2

In another data set the target is T6, CYP2D6 (Homo sapiens, UniProt P10635).
T6 construct: purchased BD Biosciences
T6 sequence (P10635 whole entry): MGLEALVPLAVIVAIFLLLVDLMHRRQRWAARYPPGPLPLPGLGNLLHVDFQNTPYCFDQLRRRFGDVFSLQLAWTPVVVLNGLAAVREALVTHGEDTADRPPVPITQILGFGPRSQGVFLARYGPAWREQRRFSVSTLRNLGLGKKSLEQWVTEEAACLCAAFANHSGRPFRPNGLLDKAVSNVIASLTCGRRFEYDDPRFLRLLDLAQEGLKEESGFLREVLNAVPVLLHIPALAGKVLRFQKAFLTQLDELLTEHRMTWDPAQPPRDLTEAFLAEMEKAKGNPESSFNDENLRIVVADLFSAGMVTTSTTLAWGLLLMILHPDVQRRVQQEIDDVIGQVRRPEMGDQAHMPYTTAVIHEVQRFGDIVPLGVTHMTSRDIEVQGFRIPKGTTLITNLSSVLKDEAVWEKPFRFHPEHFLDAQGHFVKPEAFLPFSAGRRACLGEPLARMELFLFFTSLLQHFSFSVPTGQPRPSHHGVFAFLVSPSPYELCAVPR
As to the kind of experiment: CYP inhibition fluorescence assay, CYP2D6. The format is in vitro ADME. The note with it: substrate AMMC; read-out: Cyp IC50 2D6. Here is the method: as §2

Data set [1] can be described thus: Turbidity assay of relative solubility in aqueous buffers of varying pH. The format is physicochemical. The method, then:
As an indication of relative solubility, the turbidity of compounds in aqueous solutions is assessed. To assess possible compound properties in different physiological compartments, such as stomach, intestine, and blood, a series of aqueous buffers with varying pH is used. Thus each compound is diluted into four different physiologically relevant buffers and solution turbidity is measured by spectrophotometry.
Compounds are dissolved at a concentration of 25 mM in dimethyl sulfoxide, then serially diluted 1:1 into a 96 well plate, diluting 10 times in pure dimethyl sulfoxide, with the final well of each row a dimethyl sulfoxide blank. In an assay plate, 99 μL of appropriate buffer is added to each well, and 1 μL of each sample dilution is added to the buffer, achieving a range of final total concentrations in aqueous solutions having different pH. […] Control compounds pyrene, estriol and propranolol HCl are also assessed. Plates are spun and then mixed for 1 minute, and the absorbance is read using a Tecan Safire II to read wavelengths in the visible range (490, 535, and 650 nm) at four locations per well, reflecting the degree of turbidity present. The average optical density for each wavelength in each well is graphed vs. compound concentration, and the concentration at which the curve crosses a threshold O.D. of 0.01 for each wavelength is reported as the endpoint turbidity assay result. The average of the three wavelengths is used to compare turbidity of compounds. Compounds are considered to have low solubility if the threshold concentration is <31.3 μM, moderate solubility if the threshold concentration is 31.3 μM to 250 μM, and high solubility if the threshold concentration is >250 μM.

Another data set addresses T7, CYP2C19 (Homo sapiens, UniProt P33261).
T7 construct: purchased BD Biosciences
Put plainly: CYP inhibition fluorescence assay, CYP2C19. In kind it is in vitro ADME. The settings on record: substrate CEC; read-out: Cyp IC50 2C19. Here is the method:
as §2

The target in another data set is T8, CYP3A4(BFC) (Homo sapiens, UniProt P08684).
T8 construct: purchased BD Biosciences
T8 sequence (P08684 whole entry): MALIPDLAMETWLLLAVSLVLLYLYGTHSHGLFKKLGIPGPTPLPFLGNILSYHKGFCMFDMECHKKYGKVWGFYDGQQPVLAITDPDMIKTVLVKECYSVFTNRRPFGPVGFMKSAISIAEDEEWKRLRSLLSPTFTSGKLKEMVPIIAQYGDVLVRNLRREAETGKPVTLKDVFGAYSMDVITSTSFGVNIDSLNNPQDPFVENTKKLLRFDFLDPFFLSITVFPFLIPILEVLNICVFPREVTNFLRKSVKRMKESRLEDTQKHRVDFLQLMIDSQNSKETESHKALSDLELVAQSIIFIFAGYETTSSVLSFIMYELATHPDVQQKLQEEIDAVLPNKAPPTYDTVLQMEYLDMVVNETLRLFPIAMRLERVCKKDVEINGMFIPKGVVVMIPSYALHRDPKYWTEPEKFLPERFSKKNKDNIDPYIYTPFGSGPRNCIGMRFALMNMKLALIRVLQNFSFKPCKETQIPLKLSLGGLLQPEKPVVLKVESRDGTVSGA
As to the kind of experiment: CYP inhibition fluorescence assay, CYP3A4 with BFC substrate. The settings on record: read-out: Cyp IC50 3A4(BFC). In kind it is in vitro ADME. The method, then:
as §2

Data set [2] in a line: pKa of weakly basic and weakly acidic centers. In kind it is physicochemical. The note with it: approximate.
The target in a further data set is Kdr (Homo sapiens, UniProt P35968). As to the kind of experiment: Kinase biochemical assay, Kdr.
Kdr, sequence (P35968 20-1356, species assumed): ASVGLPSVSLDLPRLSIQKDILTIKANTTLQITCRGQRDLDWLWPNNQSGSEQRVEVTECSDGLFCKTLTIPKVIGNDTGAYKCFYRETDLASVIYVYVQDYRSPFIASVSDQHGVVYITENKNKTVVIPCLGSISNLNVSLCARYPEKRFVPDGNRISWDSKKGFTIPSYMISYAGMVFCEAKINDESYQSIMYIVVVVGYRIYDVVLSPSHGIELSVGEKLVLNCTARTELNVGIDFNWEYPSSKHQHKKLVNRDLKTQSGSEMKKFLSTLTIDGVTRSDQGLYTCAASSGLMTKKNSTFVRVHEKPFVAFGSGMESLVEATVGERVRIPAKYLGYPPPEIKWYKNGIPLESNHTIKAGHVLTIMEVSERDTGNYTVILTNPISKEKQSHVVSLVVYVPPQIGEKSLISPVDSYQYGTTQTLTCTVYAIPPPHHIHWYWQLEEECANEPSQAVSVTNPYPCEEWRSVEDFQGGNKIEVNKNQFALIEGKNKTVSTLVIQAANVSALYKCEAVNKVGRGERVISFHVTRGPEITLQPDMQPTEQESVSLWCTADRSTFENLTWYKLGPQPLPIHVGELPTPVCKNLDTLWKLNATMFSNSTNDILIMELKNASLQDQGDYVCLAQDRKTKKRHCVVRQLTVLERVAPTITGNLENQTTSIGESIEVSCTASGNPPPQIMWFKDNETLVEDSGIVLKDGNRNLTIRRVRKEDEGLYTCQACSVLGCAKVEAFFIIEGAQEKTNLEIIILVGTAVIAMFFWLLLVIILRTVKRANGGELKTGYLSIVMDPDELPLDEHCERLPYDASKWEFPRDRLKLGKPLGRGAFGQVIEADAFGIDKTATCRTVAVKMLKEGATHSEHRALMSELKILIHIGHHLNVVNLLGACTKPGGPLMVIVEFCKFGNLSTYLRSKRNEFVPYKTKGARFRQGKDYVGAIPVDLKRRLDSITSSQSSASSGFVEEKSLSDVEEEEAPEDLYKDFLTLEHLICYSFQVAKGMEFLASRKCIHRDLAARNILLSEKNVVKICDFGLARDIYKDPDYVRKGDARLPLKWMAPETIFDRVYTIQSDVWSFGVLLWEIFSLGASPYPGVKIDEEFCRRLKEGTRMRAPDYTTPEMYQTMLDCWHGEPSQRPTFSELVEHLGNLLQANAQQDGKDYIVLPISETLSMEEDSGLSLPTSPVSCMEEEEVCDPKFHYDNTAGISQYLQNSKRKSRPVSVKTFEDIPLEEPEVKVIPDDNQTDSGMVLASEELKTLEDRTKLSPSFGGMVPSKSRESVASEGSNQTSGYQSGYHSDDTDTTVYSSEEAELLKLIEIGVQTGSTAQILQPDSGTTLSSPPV
The target of another data set is Hgk (Homo sapiens, UniProt O95819). Put plainly: Kinase biochemical assay, Hgk.
The next data set deals with T9, B-Raf mutant V600E (Homo sapiens, UniProt P15056, V600E).
T9 construct: purchased Upstate Biotechnology
As to the kind of experiment: Raf kinase biochemical assay (biotin-MEK1 phosphorylation, AlphaScreen), B-Raf V600E. The settings on record: 100 μM ATP, biotin-MEK1 substrate. The method, then:
as §1

In another data set the target is Src (Homo sapiens, UniProt P12931). As to the kind of experiment: Kinase biochemical assay, Src.
Src, sequence (P12931 whole entry, species assumed): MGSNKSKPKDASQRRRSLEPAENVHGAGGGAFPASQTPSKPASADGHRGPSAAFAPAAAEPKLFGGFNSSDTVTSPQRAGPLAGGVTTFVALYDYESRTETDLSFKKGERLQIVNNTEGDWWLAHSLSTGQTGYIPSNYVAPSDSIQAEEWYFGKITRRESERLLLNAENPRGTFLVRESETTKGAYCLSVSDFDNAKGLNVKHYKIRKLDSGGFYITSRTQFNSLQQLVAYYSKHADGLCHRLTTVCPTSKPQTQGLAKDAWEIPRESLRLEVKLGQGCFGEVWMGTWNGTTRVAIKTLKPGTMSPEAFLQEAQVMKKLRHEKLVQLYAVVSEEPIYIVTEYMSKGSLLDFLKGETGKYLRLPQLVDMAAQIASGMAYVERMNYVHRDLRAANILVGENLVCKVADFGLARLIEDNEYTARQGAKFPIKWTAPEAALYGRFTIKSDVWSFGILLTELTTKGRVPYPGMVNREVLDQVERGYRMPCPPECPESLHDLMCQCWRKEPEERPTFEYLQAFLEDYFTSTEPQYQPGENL
[3] abbreviates: pH 1.4 (Simulated Gastric Fluid).
[4] abbreviates: pH 4.5 (Simulated Intestinal fluid).
[5] abbreviates: pH 6.8 (Simulated Intestinal fluid).
The mark [6] stands for this setting: read-out: pKa of N-7 of the pyrrolo[2,3-b]pyridine portion (weakly basic).
Where [7] appears, read: read-out: pKa of the sulfonamide nitrogen (weakly acidic).

Like-named read-outs stand apart in the source and are kept apart here. Some results are limits rather than exact numbers.

The source of these data is patent US8129404B2, “Compounds and uses thereof” (Plexxikon Inc., priority 2009, dated 2012).

T3 sequence (P11712 whole entry): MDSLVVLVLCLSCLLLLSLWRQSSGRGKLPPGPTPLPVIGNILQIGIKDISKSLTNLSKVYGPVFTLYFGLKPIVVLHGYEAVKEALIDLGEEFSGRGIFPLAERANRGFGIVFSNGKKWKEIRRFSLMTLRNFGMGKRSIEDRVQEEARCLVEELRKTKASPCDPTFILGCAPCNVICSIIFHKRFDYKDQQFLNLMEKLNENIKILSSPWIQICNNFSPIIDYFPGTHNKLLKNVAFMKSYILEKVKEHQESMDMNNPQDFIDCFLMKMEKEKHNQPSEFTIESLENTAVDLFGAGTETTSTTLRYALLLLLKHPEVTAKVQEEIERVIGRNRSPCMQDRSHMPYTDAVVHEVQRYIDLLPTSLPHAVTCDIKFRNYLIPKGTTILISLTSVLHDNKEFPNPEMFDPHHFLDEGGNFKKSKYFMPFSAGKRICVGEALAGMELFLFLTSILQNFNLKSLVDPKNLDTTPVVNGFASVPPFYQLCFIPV
Fms, sequence (P07333 20-972, species assumed): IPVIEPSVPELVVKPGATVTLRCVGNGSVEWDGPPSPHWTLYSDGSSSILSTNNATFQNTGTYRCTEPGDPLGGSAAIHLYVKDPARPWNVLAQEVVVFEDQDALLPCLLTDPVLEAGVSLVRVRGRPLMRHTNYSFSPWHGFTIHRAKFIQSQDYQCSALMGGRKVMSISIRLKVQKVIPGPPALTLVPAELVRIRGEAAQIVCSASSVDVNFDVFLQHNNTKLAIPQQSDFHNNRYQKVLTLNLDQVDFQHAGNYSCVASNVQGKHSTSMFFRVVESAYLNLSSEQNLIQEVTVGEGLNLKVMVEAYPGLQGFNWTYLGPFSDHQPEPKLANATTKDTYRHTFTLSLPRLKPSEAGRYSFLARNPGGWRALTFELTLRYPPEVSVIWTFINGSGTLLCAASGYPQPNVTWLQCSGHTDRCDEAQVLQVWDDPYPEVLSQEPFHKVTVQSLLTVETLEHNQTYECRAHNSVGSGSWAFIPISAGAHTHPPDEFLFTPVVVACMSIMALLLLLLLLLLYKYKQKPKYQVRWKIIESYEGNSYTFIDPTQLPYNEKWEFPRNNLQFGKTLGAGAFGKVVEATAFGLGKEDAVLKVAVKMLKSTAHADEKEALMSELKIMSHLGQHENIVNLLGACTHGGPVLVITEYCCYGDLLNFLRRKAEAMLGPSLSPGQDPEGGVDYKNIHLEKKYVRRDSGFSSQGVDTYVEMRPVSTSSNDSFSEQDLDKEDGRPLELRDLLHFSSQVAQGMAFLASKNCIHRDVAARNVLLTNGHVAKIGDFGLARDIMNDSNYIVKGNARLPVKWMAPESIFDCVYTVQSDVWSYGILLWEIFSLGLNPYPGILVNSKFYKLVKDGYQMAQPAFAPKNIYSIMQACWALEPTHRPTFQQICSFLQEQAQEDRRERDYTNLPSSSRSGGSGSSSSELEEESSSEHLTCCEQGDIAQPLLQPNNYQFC
T5 sequence (P08684 whole entry): as the sequence (P08684 whole entry) above

On to `N#Cc1ccnc2[nH]cc(C(=O)c3c(F)ccc(NS(=O)(=O)c4ccc(C(F)(F)F)cc4)c3F)c12` [Compound P-0001, N-[3-(4-cyano-1H-pyrrolo[2,3-b]pyridine-3-carbonyl)-2,4-difluoro-phenyl]-4-trifluoromethyl-benzenesulfonamide], for which the concentration for half-maximal inhibition (IC50) (in general, the point on the concentration scale where inhibition reaches its midpoint) is less than 0.1 µM against B-Raf; more than 10 µM at CYP1A2; more than 10 µM at CYP2C9; more than 10 µM at Fms; more than 10 µM against Btk; 1 to 10 µM at TrkA. The IC50 against Kit was 1 to 10 µM; on c-Raf-1 it was less than 0.1 µM; at CYP3A4(BQ) it was more than 10 µM; on CYP2D6 it was more than 10 µM; on CYP2C19, more than 10 µM; on CYP3A4(BFC), more than 10 µM. For the same molecule, the IC50 is more than 10 µM on Kdr, more than 10 µM against Hgk, less than 1 µM against B-Raf mutant V600E and 1 to 10 µM on Src. Besides, the “turbidity threshold (L, M, H)” value in [1] (setting [3]) is “L (low solubility if the threshold concentration is <31.3 μM)”; in data set [1] (setting [4]) it was “L (low solubility if the threshold concentration is <31.3 μM)”; in data set [1] (setting [5]) it was “L (low solubility if the threshold concentration is <31.3 μM)”; in data set [1] (pH 7.4 (Hepes Buffer)), “M (moderate solubility if the threshold concentration is 31.3 μM to 250 μM)”. Moreover, the pKa (usually the negative logarithm of the acid dissociation constant) was 4 to 5 in data set [2] (setting [6]) and approximately 7 in data set [2] (setting [7]).
With `C#Cc1ccnc2[nH]cc(C(=O)c3c(F)ccc(NS(=O)(=O)c4ccc(C(F)(F)F)cc4)c3F)c12` [Compound P-0002, N-[3-(4-ethynyl-1H-pyrrolo[2,3-b]pyridine-3-carbonyl)-2,4-difluoro-phenyl]-4-trifluoromethyl-benzenesulfonamide], the IC50 is less than 0.1 µM at B-Raf; more than 10 µM on CYP1A2; less than 5 µM on CYP2C9; more than 10 µM against Fms; more than 10 µM on Btk; more than 10 µM at TrkA. For the same molecule, the IC50 on c-Raf-1 is less than 0.1 µM; at CYP3A4(BQ), more than 10 µM; on CYP2D6 it was more than 10 µM; on CYP2C19 it was more than 10 µM; at CYP3A4(BFC), 5 to 10 µM; against Kdr, approximately 1 µM. The figures for the IC50 at B-Raf mutant V600E and against Src were less than 1 µM and approximately 1 µM, respectively. The “turbidity threshold (L, M, H)” value in data set [1] (setting [3]) is reported as “L (low solubility if the threshold concentration is <31.3 μM)”; in data set [1] (setting [4]) it was “L (low solubility if the threshold concentration is <31.3 μM)”; in data set [1] (setting [5]), “M (moderate solubility if the threshold concentration is 31.3 μM to 250 μM)”; in data set [1] (pH 7.4 (Hepes Buffer)) it was “M (moderate solubility if the threshold concentration is 31.3 μM to 250 μM)”. Also, the pKa in data set [2] (setting [6]) was 4 to 5; in data set [2] (setting [7]), approximately 7.
